Converted amounts (≈) assume the structure as drawn. Where two headings read alike, the source gives them in different places.
Experiments:
Test in all cases: In vitro activity: M.I.C. on nutrient agar plates, surface inoculation, 24 h at 37°C
Type in all cases: cell-based
Staphylococcus aureus = conditions: S. aureus, Peptid or Antibiotikum alone; for MIC: Staphylococcus aureus, 24 h
Source text: (§1) Es wurden konzentrierte Lösungen von Gemischen der Verbindungen der Formel I und dem Antibiotikum in den gewünschten Gewichtsverhältnissen hergestellt, die dann beliebig verdünnt wurden. Aliquote Teile der verdünnten Lösungen wurden mit einem geeigneten Nähragar in Petrischalen gemischt. Zum Vergleich wurden ähnliche Agar-Schalen hergestellt, die ausser dem Nährmedium die Verbindung I bzw. das Antibiotikum alleine enthielten. Nach Oberflächeninokulation mit den Mikroorganismen wurde 24 Stunden bei 37°C aufbewahrt und dann die minimale Hemmkonzentration (M.I.C.) bestimmt und die F.I.C.-Indexe berechnet. Die Ergebnisse unter Verwendung repräsentativer Verbindungen der Formel I, nämlich (1R)-1-(N-Sarcosyl-L-norvalyl-L-norvalylamino)-ethylphosphonsäure, und (1R)-1-(N-Methyl-L-leucyl-L-norvalyl-L-norvalylamino)-ethylphosphonsäure und repräsentativer Antibiotika, nämlich Cephalexin und D-Cycloserin, sind in den folgenden Tabellen I-III zusammengestellt..

Streptococcus faecalis = conditions: S. faecalis, Peptid or Antibiotikum alone
Source text: as §1

Streptococcus pyogenes = conditions: S. pyogenes, Peptid or Antibiotikum alone
Source text: as §1

Proteus mirabilis = conditions: P. mirabilis, Peptid or Antibiotikum alone
Source text: as §1

Escherichia coli = conditions: E. coli, Peptid or Antibiotikum alone
Source text: as §1

Streptococcus agalactiae = conditions: S.agalactiae, Peptid or Antibiotikum alone
Source text: as §1

[1] = tested on: Streptococcus dysgalactiae; conditions: S.dysgalactiae, Peptid or Antibiotikum alone
Source text: as §1

Compound CCC[C@H](NC(=O)[C@H](CC(C)C)NC)C(=O)N[C@@H](CCC)C(=O)N[C@@H](C)P(=O)(O)O [(1R)-1-(N-Methyl-L-leucyl-L-norvalyl-L-norvalylamino)-ethylphosphonsäure] has a M.I.C. (Staphylococcus aureus) of over 64 µg/mL, a M.I.C. (Streptococcus faecalis) of 2 µg/mL and a M.I.C. (Streptococcus pyogenes) of over 64 µg/mL.

Compound CC1=C(C(=O)O)N2C(=O)[C@@H](NC(=O)[C@H](N)c3ccccc3)[C@H]2SC1 [Cephalexin] has a M.I.C. (Staphylococcus aureus) of 64 µg/mL, an MIC (Staphylococcus aureus) of 45.2 µg/mL (≈ 130 µM) and an MIC (Streptococcus faecalis; Enterococcus faecalis, 24 h) of 128 µg/mL (≈ 368 µM). It also gave a M.I.C. (Streptococcus pyogenes) of 8 µg/mL, an MIC (Streptococcus pyogenes; Streptococcus pyogenes, 24 h) of 11.3 µg/mL (≈ 32.5 µM) and an MIC (Proteus mirabilis; Proteus mirabilis, 24 h) of 22.6 µg/mL (≈ 65.1 µM).

Compound CCC[C@H](NC(=O)CNC)C(=O)N[C@@H](CCC)C(=O)N[C@@H](C)P(=O)(O)O [(1R)-1-(N-Sarcosyl-L-norvalyl-L-norvalylamino)-ethylphosphonsäure] has a M.I.C. (Staphylococcus aureus) of over 128 µg/mL, a M.I.C. (Streptococcus faecalis) of 90.5 µg/mL and a M.I.C. (Escherichia coli) of 2 µg/mL. For the same compound, the M.I.C. (Streptococcus agalactiae) was 45.2 µg/mL, the M.I.C. (Streptococcus pyogenes) was 90.5 µg/mL and the M.I.C. (Proteus mirabilis) was over 128 µg/mL. The M.I.C. [1] was 2.8 µg/mL.

N[C@@H]1CONC1=O [D-Cycloserin] showed an MIC (Staphylococcus aureus; read-out: M.I.C.) of 16 µg/mL (≈ 157 µM), an MIC (Escherichia coli; Escherichia coli, 24 h) of 32 µg/mL (≈ 313 µM) and an MIC (Streptococcus agalactiae; Streptococcus agalactiae, 24 h) of 90.5 µg/mL (≈ 886 µM). The MIC ([1]; Streptococcus dysgalactiae, 24 h) was 128 µg/mL (≈ 1250 µM).

— patent publication EP0026409A1, “Combinations of active ingredients, pharmaceutical preparations, as well as their preparation” (F. HOFFMANN-LA ROCHE & CO. Aktiengesellschaft, priority 1979, dated 1981)
